Structures can show the parent of a compound that is named as a salt.
Key:
[1] = tested on: effects of monoamine oxidase inhibitor (nialamide); experiment: Potentiation of effects of monoamine oxidase inhibitor (nialamide) in mice, actimetric measurements; type: in vivo; set-up: key: Potentiation of the effects of nial amide for the tested product was expressed in increasing number of + sign for a determined dose in mg/kg; settings: nialamide 100 mg/kg i.p. 30 minutes before, actimetric values every 30 minutes for 6 hours
Source text: The administration of a monoamine oxidase inhibitor to mice induces a hyperactive movement of the animals which is able to be potentiated by an antidepressant. […] Potentiation of the effects of nial amide for the tested product was expressed in increasing number of + sign for a determined dose in mg/kg.

[2] = Acute toxicity, intraperitoneal; settings: mouse, in vivo, ip; mice, i.p., determined 48 hours later; read-out: DL50 dose which kills 50% of mice
Protocol: The DL50 dose which kills 50% of mice after intraperitoneal administration of the tested compound was determined 48 hours later and the DL50 for the compounds is reported in Table III.

serotonine (5HT) uptake = experiment: Inhibition of serotonine (5HT) uptake in vitro in impure brain synaptosomes; type: biochemical; settings: synaptosomes from entire brain of female rat 19 to 21 days old, 14C-5HT 10^-7 M, 37° C., 5 minutes; read-out: I.C. 50, 50% inhibiting concentration of 14C-5HT uptake
Protocol: The inhibition of serotonine (5HT) uptake was measured in impure synaptosomes prepared from the entire brain of a female rat 19 to 21 days old using the technique of Kannengiesser et al [Biochemical Pharmacology, Vol. 22, (1973) p. 73].

effects of L-dopa = experiment: Potentiation of effects of L-dopa in mice pretreated with iproniazide; type: in vivo; settings: Mus musculus, ip, one hour before L-dopa 100 mg/kg i.p.; male mice, iproniazide 75 mg/kg i.p. 18 hours before; read-out: ED50 dose which potentiates by 50% the L-dopa effects
Protocol: The administration of L-dopa to mice pretreated 18 hours previously with iproniazide produced certain number of symptoms; muscular hypertonicity, hyperactivity, agitation crying, aggressiveness, salivation and exophthalmy. The intensity of these effects is potentiated by administration of an antidepressant one hour before the administration of L-dopa. Male mice received intraperitoneally 75 mg/kg of iproniazide 18 hours before the start of the test and the tested product was intraperitoneally administered in aqueous solution in increasing doses. One hour later, L-dopa was intraperitoneally administered at a dose of 100 mg/kg and the different symptoms were observed 15 and 30 minutes later. They were evaluated on a scale of 0 to 3 for each animal and the totals for each dose were determined.

CN(C)CC1C=Cc2cc([N+](=O)[O-])ccc2CC1 (stereo not drawn) [1 - 2]
Potentiation of Nialamide ([1]; 5 mg/kg i.p.): +
Potentiation of Nialamide ([1]; 20 mg/kg i.p.): +
LD50 at 48 h [2]: 150 mg/kg
IC50 (serotonine (5HT) uptake): 0.63 µM

CNCC1C=Cc2cc(O)ccc2CC1.Cl (stereo not drawn) [Example 6, 7-methylaminomethyl-6,7-dihydro [5H] benzocycloheptene-2-ol-hydrochloride]
ED50 (effects of L-dopa): 20 mg/kg
Potentiation of Nialamide ([1]; 5 mg/kg i.p.): +
Potentiation of Nialamide ([1]; 20 mg/kg i.p.): +
LD50 at 48 h [2]: 75 mg/kg
IC50 (serotonine (5HT) uptake): 0.98 µM

CNCC1C=Cc2cc([N+](=O)[O-])ccc2CC1 (stereo not drawn) [Example 3, N-methyl-2-nitro-6,7-dihydro [5H] benzocycloheptene-7-methanamine hydrochloride]
ED50 (effects of L-dopa): 20 mg/kg
Potentiation of Nialamide ([1]; 20 mg/kg i.p.): +
LD50 at 48 h [2]: 100 mg/kg
IC50 (serotonine (5HT) uptake): 0.59 µM

CNCC1C=Cc2cc(OC)ccc2CC1.Cl (stereo not drawn) [Example 5, N-methyl-2-methoxy-6,7-dihydro [5H] benzocycloheptene-7-methanamine hydrochloride]
ED50 (effects of L-dopa): 50 mg/kg
LD50 at 48 h [2]: 100 mg/kg
IC50 (serotonine (5HT) uptake): 1.4 µM

CNCC1C=Cc2cc(N)ccc2CC1 (stereo not drawn) [Example 4, di-(N-methyl-2-amino-6,7-dihydro [5H]benzocycloheptene-7-methanamine) fumarate]
LD50 at 48 h [2]: 100 mg/kg
IC50 (serotonine (5HT) uptake): 6.8 µM

— patent US4117164A, “Aminomethyl-benzocycloheptenes and method of use” (Roussel Uclaf, priority 1976, dated 1978)
